{"source": "paper PMC12785804", "about": "“Triterpenoids CDDO and CDDO-EA Inhibit the Replication of Hepatitis B Virus by Modulating Nucleocapsid Assembly” (International Journal of Molecular Sciences, 2025)", "key": {"[1]": {"molecular_target": "T1, HBc protein (HBV core protein), purchased (Hepatitis B virus ayw/France/Tiollais/1979, UniProt P03146)", "T1 construct": "gene C; purchased from Sino Biological; immobilised on CM5 chip", "T1 sequence (P03146 whole entry)": "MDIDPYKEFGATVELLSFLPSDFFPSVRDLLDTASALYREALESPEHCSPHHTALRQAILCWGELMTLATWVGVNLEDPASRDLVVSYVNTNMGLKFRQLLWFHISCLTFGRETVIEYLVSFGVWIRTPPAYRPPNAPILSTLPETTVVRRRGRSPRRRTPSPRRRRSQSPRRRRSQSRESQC", "test": "SPR (Reichert4, CM5 chip)", "assay_type": "binding"}, "[2]": {"molecular_target": "T2, HBc (HBV core protein) in HepAD38 lysate (Hepatitis B virus ayw/France/Tiollais/1979, UniProt P03146)", "T2 construct": "gene C; full-length core expressed from the integrated tetracycline-regulated HBV genome of HepAD38 (HepG2-derived); freeze-thaw cell lysate", "T2 sequence (P03146 whole entry)": "as above", "test": "CETSA, Western blot", "assay_type": "biochemical", "conditions": "cell lysate, 30 min at room temperature, then 37-72 °C for 3 min"}}, "data": [{"smiles": "CC1(C)CC[C@]2(C(=O)O)CC[C@]3(C)[C@H](C(=O)C=C4[C@@]5(C)C=C(C#N)C(=O)C(C)(C)[C@@H]5CC[C@]43C)[C@@H]2C1", "note": "[CDDO, 2-cyano-3,12-dioxooleana-1,9-dien-28-oic acid]", "values": [{"measurement": "SPR binding", "setting": "[1]", "value": "compounds CDDO-EA and CDDO exhibited weak binding kinetics to HBc protein"}, {"measurement": "thermal shift (right-shifted CETSA melting curve)", "setting": "[2]; 0.8 μM compound", "value": "CDDO-EA and CDDO treatments significantly stabilized HBc protein"}]}, {"smiles": "CCNC(=O)[C@]12CCC(C)(C)C[C@H]1[C@H]1C(=O)C=C3[C@@]4(C)C=C(C#N)C(=O)C(C)(C)[C@@H]4CC[C@@]3(C)[C@]1(C)CC2", "note": "[CDDO-EA]", "values": [{"measurement": "SPR binding", "setting": "[1]", "value": "compounds CDDO-EA and CDDO exhibited weak binding kinetics to HBc protein"}, {"measurement": "thermal shift (right-shifted CETSA melting curve)", "setting": "[2]; 0.4 μM compound", "value": "CDDO-EA and CDDO treatments significantly stabilized HBc protein"}]}]}
